We go through ten molecules from US5364944A, “Substituted benzoylbenzene-, biphenyl- and 2-oxazole- alkanoic acid compounds” (American Home Products Corporation, priority 1993, dated 1994).

Assay [1] relates to biosynthesis of LTB4 by isolated human neutrophils. Description: Inhibition of LTB4 biosynthesis by isolated human neutrophils (PMN). As to conditions: A23187 stimulated human PMN; for inhibition at 2.5 µM: Neutrophil, read-out: % Inhibition of LTB4 Synthesis. Format: cell-based. The protocol: The ability of the compounds of the invention to inhibit the biosynthesis of LTB4 by isolated human neutrophils is evaluated in the following assay, which is carried out in this manner.
A leukocyte enriched blood sample obtained from a healthy donor is procured by leukophoresis using a Haemonetics model 30+ blood processor (Biological Specialties, Inc., Lansdale, Pa.). The top "platelet-rich" layer is removed after a low speed spin (35×g, 15 min, 25° C.) of the sample. The remaining cell suspension is centrigued (400×g, 10 min, 25° C.) to sediment the remaining cells. The supernatant is discarded and the cell pellet resuspended in 120 ml HBSS (without Ca^++ /Mg++). The cell suspension is subjected to ficoll-hypaque sedimentation (Histopaque 1077, 400×g, 30 min, 25° C.). Contaminating erythrocytes are lysed by hypotonic shock (1 min). The cells are then washed once with 40 ml of HBSS and resuspended with HBS S (without Ca^++ /Mg^++) to a concentration of 2.5×10^7 cells/ml for further use. Greater than 95% purity is obtained as assessed by microscopic examination.
One ml of human PMN (2.5×10^7 cells/ml) is incubated with vehicle or drugs (10 μl) for 10 min at 30° C. After preincubation, an equal volume of HBSS (1 ml) containing 2.4 mM CaCl2, 6 μM calcium ionophore A23187 and 50 μCi[^3 H]-acetate is then incubated at 30° C. for 15 minutes. An aliquot (100 μl) of the reaction mixture is taken out and mixed with 900 μl of 15% ethanol. LTB4 is extracted by using solid phase extraction on reverse phase C18 columns to remove excess [^3 H]-acetate and PAF. The C18 column is prewashed once with 2 ml of ethanol and water. The sample aliquot is acidified with 0.1 N HCl to pH3 before applying to the column. The column is then washed with 2 ml of water followed by 2 ml of 15% ethanol and 2 ml of petroleum ether to remove excess labeled acetate. The sample is eluted with 2 ml of ethyl acetate. The collected samples are dried with nitrogen and resuspended in 0.5 ml RIA buffer. The quantity of LTB4 in the sample is obtained from RIA determination.
Data presented are the mean +/- s.d. of the values relative to control A23187 stimulated cells for each experiment assayed in triplicate. Percent inhibition when used is calculated as:
% Inhibition=100-[(×.div.Control )×100]
Dose response analysis is performed by non-linear regression analysis for curve fitting and IC50 determination.

A further assay concerns LTB4. In words: Reverse passive Arthus pleurisy assay, inflammatory mediator release: LTB4. Format: in vivo, rat (male Lewis). The note with it: standard drugs; for % Inh LTB4: 4 mg/kg p.o. The protocol: (§1) The compounds of the invention are further tested in the reverse passive Arthus pleurisy assay to evaluate their effectiveness in inflammatory mediator release and/or the fluid and cellular phases of an inflammatory response.
(§2) This assay is carried out as follows:
A reverse passive Arthus reaction is induced in the pleural cavity of male Lewis rats (150-200 g; fasted overnight prior to use) by the intravenous administration of bovine serum albumin (BSA; 4 mg/0.2 ml) followed 30 minutes later by the injection of rabbit anti-BSA (1 mg/0.2 ml; lyophilized IgG fraction; Organon Teknika, West Chester, Pa.) into the right pleural space under halothane anesthesia. […] Animals are sacrificed at either the time of peak eicosanoid production (i.e. 5 minutes after anti-BSA for immunoreactive TxB2 10 minutes for immunoreactive LTB4, 20 minutes for immunoreactive LTC4) or at the time of peak neutrophil infiltration (4 hours after anti-BSA) by CO2 inhalation. The pleural cavity is then exposed, the fluid exudate removed by gentle vacuum aspiration and the volume of exudate is recorded. For the determination of cellular infiltration, the pleural cavity is rinsed with 3 ml of 0.1% EDTA in sterile saline, and the recovered wash is pooled with the exudate. Cell number is determined on a model ZBI Coulter counter. For determination of eicosanoid production, undiluted pleural exudate is microfuged and the supernatant is extracted with ethanol (8-10 times volume). Extracts are either stored at -20° C., or are evaporated to dryness under a stream of N2 and reconstituted in radioimmunoassay (RIA) buffer.
Eicosanoids are quantitated by RIA according to the procedure specified by the RIA kit manufacturer (Advanced Magnetics, Cambridge, Mass.). Briefly, 100 μl of ^3 H-labeled eicosanoid and 100 μl of specific antibody are sequentially added to 100 μl of extracted pleural exudate in BGG -phosphate buffer which contains 0.01 M phosphate, 0.1% bovine gamma globulin and 0.1% sodium azide at pH 7.0. Antibody-bound eicosanoid is separated from unbound eicosanoid by the addition of 750 μl of dextran (0.4%)-coated charcoal (0.4% Norit A) containing 0.1% sodium azide. The mixture is centrifuged at 2000 RPM at 5° C. for 15 minutes to pellet the charcoal and adsorbed unbound eicosanoid. Antibody-bound labeled eicosanoid is quantitated by counting in a liquid scintillation counter, and is correlated to concentration by a standard curve.
(§3) Inflammatory cells are expressed as 10^6 cells/ml, pleural exudate is expressed as ml of fluid, and the amount of eicosanoids in the pleural cavity is expressed as ng/ml of exudate. Mean ±S.E.M. is determined for each group. Percent inhibition (% I) of cell number, exudate volume and eicosanoid production is calculated for vehicle-treated control groups, and the responses in drug-treated rats are then expressed as the mean % I of the control. […] Exp. Ther., 96, 99-113 (1949).

Another assay deals with TxB2. Description: Reverse passive Arthus pleurisy assay, inflammatory mediator release: TxB2. Format: in vivo, rat (male Lewis). The note with it: standard drugs; for ED50 TxB2: p.o., inflammatory mediator release, 5 min. The protocol:
as §1, §2
A reverse passive Arthus reaction is induced in the pleural cavity of male Lewis rats (150-200 g; fasted overnight prior to use) by the intravenous administration of bovine serum albumin (BSA; 4 mg/0.2 ml) followed 30 minutes later by the injection of rabbit anti-BSA (1 mg/0.2 ml; lyophilized IgG fraction; Organon Teknika, West Chester, Pa.) into the right pleural space under halothane anesthesia. Drugs or vehicle (0.5% Tween-80) control are administered orally in a volume of 1 ml/100 g body weight at 1 hour prior to the anti-BSA. Animals are sacrificed at either the time of peak eicosanoid production (i.e. 5 minutes after anti-BSA for immunoreactive TxB2 10 minutes for immunoreactive LTB4, 20 minutes for immunoreactive LTC4) or at the time of peak neutrophil infiltration (4 hours after anti-BSA) by CO2 inhalation. The pleural cavity is then exposed, the fluid exudate removed by gentle vacuum aspiration and the volume of exudate is recorded. […] Cell number is determined on a model ZBI Coulter counter. […]
Eicosanoids are quantitated by RIA according to the procedure specified by the RIA kit manufacturer (Advanced Magnetics, Cambridge, Mass.). […] Antibody-bound labeled eicosanoid is quantitated by counting in a liquid scintillation counter, and is correlated to concentration by a standard curve.
Inflammatory cells are expressed as 10^6 cells/ml, pleural exudate is expressed as ml of fluid, and the amount of eicosanoids in the pleural cavity is expressed as ng/ml of exudate. Mean ±S.E.M. is determined for each group. Percent inhibition (% I) of cell number, exudate volume and eicosanoid production is calculated for vehicle-treated control groups, and the responses in drug-treated rats are then expressed as the mean % I of the control. […]

Assay [2] relates to fluid and cellular phases of an inflammatory response. Description: Reverse passive Arthus pleurisy assay, pleural inflammation (fluid exudation, cellular influx). The class given is in vivo, rat (male Lewis). As to conditions: for ED30 Fluid Exudation: p.o., pleural inflammation; for ED30 Fluid Exudation / % Inh Cellular Influx: standard drugs; for % Inh Cellular Influx: 8 mg/kg p.o. The protocol: as §1, §2
A reverse passive Arthus reaction is induced in the pleural cavity of male Lewis rats (150-200 g; fasted overnight prior to use) by the intravenous administration of bovine serum albumin (BSA; 4 mg/0.2 ml) followed 30 minutes later by the injection of rabbit anti-BSA (1 mg/0.2 ml; lyophilized IgG fraction; Organon Teknika, West Chester, Pa.) into the right pleural space under halothane anesthesia. Drugs or vehicle (0.5% Tween-80) control are administered orally in a volume of 1 ml/100 g body weight at 1 hour prior to the anti-BSA. Animals are sacrificed at either the time of peak eicosanoid production (i.e. 5 minutes after anti-BSA for immunoreactive TxB2 10 minutes for immunoreactive LTB4, 20 minutes for immunoreactive LTC4) or at the time of peak neutrophil infiltration (4 hours after anti-BSA) by CO2 inhalation. The pleural cavity is then exposed, the fluid exudate removed by gentle vacuum aspiration and the volume of exudate is recorded. For the determination of cellular infiltration, the pleural cavity is rinsed with 3 ml of 0.1% EDTA in sterile saline, and the recovered wash is pooled with the exudate. Cell number is determined on a model ZBI Coulter counter. For determination of eicosanoid production, undiluted pleural exudate is microfuged and the supernatant is extracted with ethanol (8-10 times volume). Extracts are either stored at -20° C., or are evaporated to dryness under a stream of N2 and reconstituted in radioimmunoassay (RIA) buffer.
as §3

For assay [3], the system named is synthesis of the arachidonic acid cyclooxygenase oxidation product PGE2 (rat PMN). In words: Inhibition of cyclooxygenase product PGE2 synthesis by rat PMN. The class given is cell-based. As to conditions: negative values denote a potentiation of cyclooxygenase.
Experimental: In this assay, the procedure of Example 41 is carried out as described. However, in order to determine cyclooxygenase activity, the samples are cochromatographed with authentic reference [^3 H]-PGE2.
For assay [4], the system named is 5-lipoxygenase in human whole blood. Description: Inhibition of 5-lipoxygenase in human whole blood (LTB4). Format: cell-based. The protocol: The assay of this Example measures the ability of the compounds tested to inhibit 5-lipoxygenase in human whole blood.
as §2
Blood is obtained in 50-100 ml quantities from male donors. White blood cell counts and differentials are made. Two ml of blood are placed in a 15 ml polypropylene test tube. Compounds are solubilized in dimethylsulfoxide and diluted 1:10 in 10% bovine serum albumin in phosphate buffered saline, pH 7.4 resulting in a final dimethylsulfoxide concentration of 0.1% in the blood. Then, compounds are added to the blood in a shaking water bath at 37° C. for 10 minutes prior to the addition of 30 μM calcium ionophore (A23187; Sigma). After ionophore administration, whole blood samples are mixed and incubated for 20 minutes at […] in a shaking water bath. Incubation is terminated by placing samples in an ice bath and immediately adding ethylene glycol-bis-(β-aminoethyl ether)-N,N,N',N'-tetraacetic acid (10 mM). Samples are mixed and centrifuged at 1200×g for 15 minutes at 4° C. Preparation of samples for evaluation by RIA or ELISA is carried out by the following protocol. Plasma is removed from sample tubes, placed in 15 ml polypropylene test tubes containing 8 ml methanol, and then vortexed to precipitate protein. Samples are stored at -70° C. overnight. The next day, samples are centrifuged at 200×g for 15 minutes at 4° C. to pellet the precipitate. Samples are dried in a Savant speed vac concentrator, reconstituted to original volume with ice cold RIA or ELISA buffer, and stored at -70° C. until assayed. The assay for eicosanoids (LTB4, TxB2, and PGE2) is performed as described by the manufacturer of the [^3 H]-RIA kit or ELISA kit (LTB4 -Amersham, TxB2 and PGE2 - Caymen Chemical).
The total eicosanoid level in 2 ml of blood is calculated and reported as ng/10^6 neutrophils. […] Drug effects are expressed as percent change from control values.
Compounds tested in vitro are solubilized in dimethylsulfoxide and diluted 1:10 in 10% bovine serum albumin in phosphate buffer saline resulting in a final dimethylsulfoxide concentration of 0.1% in the blood.

For the molecule `CC(c1cc2ccccc2s1)N(O)C(N)=O` (stereo not shown) [A-64,077, reference compound], in assay [1], the inhibition at 2.5 µM was determined as 75.8%.

In the case of `CN=C1CCN(c2cccc(C(F)(F)F)c2)N1` [BW540C, reference compound], the “ED50 LTB4” value in the assay with LTB4 (p.o., inflammatory mediator release, 10 min) was 30 mg/kg. Also, the “ED50 TxB2” value with TxB2 was 19 mg/kg.

Turning to `C[C@@H]1C[C@H]2[C@@H]3CCC4=CC(=O)C=C[C@]4(C)[C@@]3(F)[C@@H](O)C[C@]2(C)[C@@]1(O)C(=O)CO` [Dexamethasone], in assay [2], the “ED30 Fluid Exudation” value is reported as 0.05 mg/kg.

In the case of `O=C(O)Cc1cccc(C(=O)c2ccc(OCc3ccc4ccccc4n3)cc2)c1` [Example 3, 3-[4-(2-Quinolinylmethoxy)benzoyl]benzene acetic acid], the inhibition at 0.5 µM in assay [3] (at 0.5 μM) is -8%. For the same molecule, in assay [3] (at 10 μM), the inhibition at 10 µM stood at 8%.

Take `O=C(O)Cc1ccc(-c2ccc(OCc3nc4ccccc4s3)cc2)cc1` [Example 12, 4'-(Benzothiazolylmethoxyl)-4-diphenylacetic acid]: the “% Inhibition of LTB4 Synthesis” value in assay [1] (at 2.5 μM) is reported as “Inactive”.

With `CN(O)C(=O)Cc1ccc(-c2ccc(OCc3nc4ccccc4s3)cc2)cc1` [Example 13, 4'-(Benzothiazolylmethoxy)-4-diphenyl-N-hydroxy-N-methyl-acetamide], the inhibition at 2.5 µM in assay [1] was determined as 98.9%.

Take `CC(C(=O)N(C)O)c1ccc(-c2ccc(OCc3nc4ccccc4n3C)cc2)cc1` (stereo not shown) [Example 23]: the IC50 in assay [4] was 11.9 µM. The “% Inhibition of LTB4” value in assay [4] (at 25 μM) amounted to 32%. For the same molecule, the inhibition at 2.5 µM in assay [1] was 99%.

In the case of `COc1ccc2c(c1)c(CC(=O)O)c(C)n2C(=O)c1ccc(Cl)cc1` [Indomethacin], in the assay on LTB4, the “% Inh LTB4” value came out at 12%. Moreover, the “% Inh Cellular Influx” value in assay [2] amounted to 19%. In addition, the ED30 in assay [2] (Rattus norvegicus, po, read-out: ED30 Fluid Exudation) was 2.5 mg/kg.

Consider `COc1ccc2cc([C@H](C)C(=O)O)ccc2c1` [Naproxen], for which, in the assay on LTB4, the “% Inh LTB4” value came to 0%. In addition, in the assay on TxB2, the “ED50 TxB2” value worked out at 0.24 mg/kg. Also, in assay [2], the “% Inh Cellular Influx” value was determined as 29% and the “ED30 Fluid Exudation” value was 3.9 mg/kg.

With `C[C@H](C(=O)O)c1ccc2cc(OCc3ccc4ccccc4n3)ccc2c1.NC(CO)(CO)CO` [Wy-50,295-A], in the assay on TxB2 (75 mg/kg p.o.), the “% Inh TxB2” value is 0%.
